According to US20260262643A1, “HERBICIDAL BENZOXAZINES” (FMC CORPORATION, priority 2022, published 2026):

Assays:
blackgrass [1] = assay: Test C postemergence; format: in vivo, Alopecurus myosuroides; details: 10 days, 0 to 100 scale (0 no effect, 100 complete control)
Method in brief: (§1)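 Pre: seeds in loam/sand, directed soil spray. Post: 1–2 leaf plants, 2–10 cm. Cmpd in non-phytotoxic solvent + surfactant. Greenhouse 10 d; visual rating vs untreated, 0 = none, 100 = complete control.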

soybean [2] = assay: Test C postemergence; format: in vivo, Glycine max; details: 10 days, 0 to 100 scale (0 no effect, 100 complete control)
Method in brief: as §1

kochia [3] = assay: Test C preemergence; format: in vivo, Bassia scoparia
Method in brief: as §1

ragweed [4] = assay: Test C preemergence; format: in vivo, Ambrosia artemisiifolia
Method in brief: as §1

wheat [5] = assay: Test C postemergence; format: in vivo, Triticum aestivum; details: 10 days, 0 to 100 scale (0 no effect, 100 complete control)
Method in brief: as §1

oat, wild [6] = assay: Test C preemergence; format: in vivo, Avena fatua
Method in brief: as §1

wheat [7] = assay: Test C preemergence; format: in vivo, Triticum aestivum
Method in brief: as §1

blackgrass [8] = assay: Test C preemergence; format: in vivo, Alopecurus myosuroides
Method in brief: as §1

barnyardgrass [9] = assay: Test D flooded paddy test; format: in vivo, Echinochloa crus-galli; details: 250 g ai/ha, applied to paddy water, visual rating after 13 to 14 days, scale 0 to 100 (0 no effect, 100 complete control)
Method in brief: (§2)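 Plants grown to the 2-leaf stage; pots flooded to 3 cm above soil at treatment and held at that depth throughout. Test compounds applied directly to the paddy water. After 13 to 14 days in a greenhouse, response was rated visually versus controls on a 0 (no effect) to 100 (complete control) scale.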

ducksalad = assay: Test D flooded paddy test; format: in vivo, Heteranthera limosa; details: 250 g ai/ha, applied to paddy water, visual rating after 13 to 14 days, scale 0 to 100 (0 no effect, 100 complete control)
Method in brief: as §2

corn [10] = assay: Test C preemergence; format: in vivo, Zea mays
Method in brief: as §1

barnyardgrass [11] = assay: Test C preemergence; format: in vivo, Echinochloa crusgalli
Method in brief: as §1

galium = assay: Test C postemergence; format: in vivo, Galium aparine; details: 10 days, 0 to 100 scale (0 no effect, 100 complete control)
Method in brief: as §1

sedge, umbrella = assay: Test D flooded paddy test; format: in vivo, Cyperus difformis; details: 250 g ai/ha, applied to paddy water, visual rating after 13 to 14 days, scale 0 to 100 (0 no effect, 100 complete control)
Method in brief: as §2

pigweed, palmer [12] = assay: Test C postemergence; format: in vivo, Amaranthus palmeri; details: 10 days, 0 to 100 scale (0 no effect, 100 complete control)
Method in brief: as §1

corn [13] = assay: Test C postemergence; format: in vivo, Zea mays; details: 10 days, 0 to 100 scale (0 no effect, 100 complete control)
Method in brief: as §1

pigweed, palmer [14] = assay: Test C preemergence; format: in vivo, Amaranthus palmeri
Method in brief: as §1

soybean [15] = assay: Test C preemergence; format: in vivo, Glycine max
Method in brief: as §1

rice = assay: Test D flooded paddy test; format: in vivo, Oryza sativa; details: 250 g ai/ha, applied to paddy water, visual rating after 13 to 14 days, scale 0 to 100 (0 no effect, 100 complete control)
Method in brief: as §2

barnyardgrass [16] = assay: Test C postemergence; format: in vivo, Echinochloa crusgalli; details: 10 days, 0 to 100 scale (0 no effect, 100 complete control)
Method in brief: as §1

horseweed = assay: Test C postemergence; format: in vivo, Erigeron canadensis; details: 10 days, 0 to 100 scale (0 no effect, 100 complete control)
Method in brief: as §1

ragweed [17] = assay: Test C postemergence; format: in vivo, Ambrosia artemisiifolia; details: 10 days, 0 to 100 scale (0 no effect, 100 complete control)
Method in brief: as §1

ryegrass, Italian [18] = assay: Test C preemergence; format: in vivo, Lolium multiflorum
Method in brief: as §1

ryegrass, Italian [19] = assay: Test C postemergence; format: in vivo, Lolium multiflorum; details: 10 days, 0 to 100 scale (0 no effect, 100 complete control)
Method in brief: as §1

oat, wild [20] = assay: Test C postemergence; format: in vivo, Avena fatua; details: 10 days, 0 to 100 scale (0 no effect, 100 complete control)
Method in brief: as §1

foxtail, giant [21] = assay: Test C postemergence; format: in vivo, Setaria faberi; details: 10 days, 0 to 100 scale (0 no effect, 100 complete control)
Method in brief: as §1

foxtail, giant [22] = assay: Test C preemergence; format: in vivo, Setaria faberi
Method in brief: as §1

kochia [23] = assay: Test C postemergence; format: in vivo, Bassia scoparia; details: 10 days, 0 to 100 scale (0 no effect, 100 complete control)
Method in brief: as §1

[24] = 500 g ai/ha, preemergence, 0 to 100 scale (0 no effect, 100 complete control)
[25] = Preemergence, 125 g ai/ha, 0 to 100 scale, 0 no effect, 100 complete control

Cc1ncn(-c2cc(C(=O)N3CC(C(F)(F)F)Oc4c(Cl)cccc43)ccn2)n1 (stereo not shown) [Compound 321]
60: Plant response rating, Blackgrass (blackgrass [1]; Postemergence, 125 g ai/ha) | Plant response rating, Pigweed, Palmer (pigweed, palmer [12]; 500 g ai/ha, postemergence) | Plant response rating, Ryegrass, Italian (ryegrass, Italian [19]; Postemergence, 125 g ai/ha) | Plant response rating, Kochia (kochia [23]; Postemergence, 125 g ai/ha)
30: Wheat plant response rating (wheat [7]; [24]) | Plant response rating, Ragweed (ragweed [17]; Postemergence, 125 g ai/ha)
90: Plant response rating, Blackgrass (blackgrass [1]; 500 g ai/ha, postemergence) | Plant response rating, Soybean (soybean [2]; Postemergence, 125 g ai/ha) | Kochia plant response rating (kochia [3]; [24]) | Blackgrass plant response rating (blackgrass [8]; [24]) | Plant response rating, Corn (corn [13]; 500 g ai/ha, postemergence) | Plant response rating, Barnyardgrass (barnyardgrass [16]; 500 g ai/ha, postemergence) | Plant response rating, Ryegrass, Italian (ryegrass, Italian [18]; [25]) | Plant response rating, Oat, Wild (oat, wild [20]; 500 g ai/ha, postemergence) | Plant response rating, Foxtail, Giant (foxtail, giant [21]; 500 g ai/ha, postemergence)
0: Plant response rating, Ragweed (ragweed [4]; [25]) | Plant response rating, Oat, Wild (oat, wild [6]; [25]) | Plant response rating, Barnyardgrass (Flood) (barnyardgrass [9]) | Plant response rating, Ducksalad (Flood) (ducksalad) | Plant response rating, Sedge, Umbrella (Flood) (sedge, umbrella) | Plant response rating, Soybean (soybean [15]; [25]) | Plant response rating, Rice (Flood) (rice) | Plant response rating, Horseweed (horseweed; 500 g ai/ha, postemergence) | Plant response rating, Horseweed (horseweed; Postemergence, 125 g ai/ha)
40: Corn plant response rating (corn [10]; [24]) | Plant response rating, Barnyardgrass (barnyardgrass [11]; [25]) | Soybean plant response rating (soybean [15]; [24]) | Plant response rating, Ragweed (ragweed [17]; 500 g ai/ha, postemergence)
50: Plant response rating, Corn (corn [13]; Postemergence, 125 g ai/ha) | Plant response rating, Pigweed, Palmer (pigweed, palmer [14]; [25])
80: Ragweed plant response rating (ragweed [4]; [24]) | Plant response rating, Wheat (wheat [5]; 500 g ai/ha, postemergence) | Oat, Wild plant response rating (oat, wild [6]; [24]) | Plant response rating, Blackgrass (blackgrass [8]; [25]) | Plant response rating, Ryegrass, Italian (ryegrass, Italian [19]; 500 g ai/ha, postemergence) | Plant response rating, Kochia (kochia [23]; 500 g ai/ha, postemergence)
10: Plant response rating, Wheat (wheat [7]; [25]) | Plant response rating, Corn (corn [10]; [25]) | Plant response rating, Pigweed, Palmer (pigweed, palmer [12]; Postemergence, 125 g ai/ha) | Plant response rating, Oat, Wild (oat, wild [20]; Postemergence, 125 g ai/ha)
70: Plant response rating, Foxtail, Giant (foxtail, giant [21]; Postemergence, 125 g ai/ha)
20: Plant response rating, Kochia (kochia [3]; [25]) | Plant response rating, Wheat (wheat [5]; Postemergence, 125 g ai/ha) | Plant response rating, Barnyardgrass (barnyardgrass [16]; Postemergence, 125 g ai/ha)
100: Plant response rating, Soybean (soybean [2]; 500 g ai/ha, postemergence) | Barnyardgrass plant response rating (barnyardgrass [11]; [24]) | Plant response rating, Galium (galium; 500 g ai/ha, postemergence) | Plant response rating, Galium (galium; Postemergence, 125 g ai/ha) | Pigweed, Palmer plant response rating (pigweed, palmer [14]; [24]) | Ryegrass, Italian plant response rating (ryegrass, Italian [18]; [24]) | Foxtail, Giant plant response rating (foxtail, giant [22]; [24]) | Plant response rating, Foxtail, Giant (foxtail, giant [22]; [25])
